Here are results for 3 compounds from article PMC3303619, “In Situ Absorption in Rat Intestinal Tract of Solid Dispersion of Annonaceous Acetogenins” (Gastroenterology Research and Practice, 2012).

The nature of data set [1]: Stability of sample solution during storing and preparation (freeze-thaw, room temperature, stock solution). The data set is classed as physicochemical. As to conditions: for Accuracy (mean ± SD)%, Freeze-thaw (three cycles): three freeze (−20°C) and thaw (room temperature) cycles, compared to nominal concentration. The protocol:
The stability of sample solution was also tested at room temperature and 4°C, respectively, for 24 h. For freeze-thaw stability testing, the samples were determined after three freeze (−20°C) and thaw (room temperature) cycles, and the concentration was compared to their nominal concentration. For the short-term stability, the samples (three replicates at each QC concentration) were extracted and placed at room temperature for 24 h and then injected into the HPLC system for analysis.
Stock solutions of ACGs were stable for at least 30 days when stored at 4°C. No significant change was found after three freeze-thaw cycles and stored at room temperature for 24 h (Table 1).

The nature of data set [2]: Solubility studies in distilled water. To be noted: 37 °C, thermodynamic from solid, component from ACGs solid dispersion (PEG 4000), 37 ± 0.5°C. The data set is classed as physicochemical. As to the method: Solubility studies were conducted by placing an excess amount of ACGs (approximately 15 mg) and ACG-solid dispersion in 10 mL distilled water, and the mixture was heated at 37 ± 0.5°C in a water bath to facilitate the solubilization using a vortex mixer. Mixtures were equilibrated at 37 ± 0.5°C for 72 h in a water bath. The equilibrated samples were centrifuged at 3000 rpm for 15 min to remove the undissolved material. The supernatant was determined by HPLC.

Data set [3] in a line: Stability of ACGs in K-R buffer solution. The data set is classed as physicochemical. As to conditions: ACGs-SD in K-R buffer, 37°C, n = 3. The protocol: Exact amount of ACGs-SD was dissolved in K-R buffer solution at 37°C in water bath. Chermolin-1, annonacin, squamocin, and annonin-VI were determined at 0, 30, 60, 90, and 120 min to analysis the stability of ACGs in K-R buffer solution.

The subject of data set [4] is intestinal loop in rats. Briefly: Single-pass intestinal perfusion (SPIP) in rats at different perfusate concentrations. The data set is classed as in vivo, Sprague-Dawley rats. To be noted: values are P app × 10^3, mean ± SD, n = 6. The protocol: We used male Sprague-Dawley rats weighing 250 ± 20 g for all perfusion studies. The drug solution was prepared by dispersing the ACGs-SD in the K-R buffer solution and installed in the cylinder, which was incubated in at 37°C water bath to maintain temperature.
The in situ SPIP experiment was conducted according to the previously published reports. Firstly, six male Sprague-Dawley rats were placed in respective cages and fasted overnight before the experiment with free access to water. Rats were anesthetized with an intraperitoneal injection of pentobarbital sodium (40 mg/Kg body weight, i.p. injection), restrained in a supine position, and kept at a body temperature of 37°C using infrared lamps.
Bile duct was ligated and the intestinal content was immediately washed away with 37°C saline solution at a flow rate of 5 mL/min, by cannulating polyethylene tubings (3.2 mm diameter) using a peristaltic pump (BT00-100 M, Baoding Longer Precision Pump Co., Ltd., China). The isolated segment, duodenum, jejunum, ileum, and colon were rinsed with physiological saline to clean any residual debris until the out flowing became colorless. Then, the intestinal loop was made by ligating both ends of the intestinal loop from 4 cm below the bile duct opening to a segment above the ileocecum of small intestine of anesthetized rats. Care was taken to handle the small intestine gently in order to maintain an intact blood supply. The whole surgical area was covered with a piece of sterilized gauze wetted with physiological saline solution.
ACGs-SD was dissolved in K-R buffer solution (0.35 g KCl, 1.37 g NaHCO3, 7.8 g NaCl, 0.22 g NaH2PO4, 0.02 g MgCl2, and glucose in 1.48 g/1000 mL purified water, pH 6.5) at a concentration of 200 μg/mL, 300 μg/mL, 500 μg/mL of ACGs, and the solution was administered to the loop via the polyethylene tubing inserted into the loop. At the start of the study, the perfusion buffer containing sample solution was first perfused at a flow rate of 5 mL/min to ensure filling the segment rapidly, and the time was set to zero with the immediate start of the perfusion and the solution volume in circulation was recorded as the 0 min volume. After 10 min, when steady-state condition was achieved, the flow rate was adjusted to 0.2 mL/min, and the outlet perfused samples were collected at time intervals (5, 10, 15, 30, 60, 90, 120 min) for 2 h. During 2 h perfusion period, at each time period, assemble the outlet solution. At the end of the experiment, the length of perfused intestinal segment was measured without stretching.
(§1) The effective permeability (K a, P app) of the drug disappearing from the intestinal lumen during the intestinal perfusion was calculated by the steady-state equation: (1) Ka =(1−CoutQout/CinQin)Q/VPapp=[− Qin·ln (CoutQout/CinQin)]/2πrL where the radius of the gut lumen was represented by r, its length by L, and the perfusate flow rate by Q (mL/min). V presents the volume of the tested intestinal. The fraction C out/C in represents the concentration of the drμg leaving the perfused segment (C out) normalized to the concentration entering the segment (C in). The C out values were corrected for net water flux by the gravimetric method.
(§2) Once the intestinal segment reached steady state, subsequent values of C out/C in were used to calculate P app. P app represents the permeability of the compound (cm/s) as determined by the disappearance of the compound from the intestinal lumen. Steady state was assumed to be reached when C out/C in reached a constant value, as determined by direct observation of the data.

The test system of data set [5] is duodenum, jejunum, ileum, and colon segment. Briefly: SPIP in different intestinal segments. The data set is classed as in vivo, Sprague-Dawley rats. As to conditions: 300 μg/mL, values are P app × 10^3, mean ± SD, n = 6.
Description: The study followed the method described in Li et al. and Dahan and Amidon. Each 10 cm long intestinal segment was isolated as follows: duodenum segment beginning from 1 cm distal to pylorus, jejunum segment beginning from 15 cm away from pylorus, ileum segment beginning at the site 20 cm upwards caecum, while segment colon beginning at the site 2 cm distal to caecum. The above segments were carefully cannulated and ligated with both the ends. Then, each segment was perfused with solution containing different mass of ACGs.
as §1, §2

Data set [6] has as its system T24 bladder cancer cells. The arrangement: method as in PMID 16154156. As to conditions: cytotoxicity in a Bax- and caspase-3-related pathway; cited from earlier work.
For data set [7], the system named is complex I. The arrangement: method as in PMID 8037664. To be noted: mammalian mitochondria; steady-state and nonsteady-state conditions; cited from earlier work.
The test system of data set [8] is K562 cells. Also on record: method as in PMID 16310807. As to conditions: cited from earlier work.
[9] abbreviates: ACGs-SD perfusate concentration 200 μg · mL^−1.
The mark [10] stands for this setting: ACGs-SD perfusate concentration 300 μg · mL^−1.
The mark [11] stands for this setting: ACGs-SD perfusate concentration 500 μg · mL^−1.

≈ marks a conversion by molar mass, not a printed value.

As to `CCCCCCCCCCCC[C@@H](O)[C@H]1CC[C@H]([C@H](O)CCCC[C@H](O)CCCCC[C@@H](O)CC2=CC(C)OC2=O)O1` (some centres unmarked) [Annonacin, annonacin], the “Accuracy (mean ± SD)%, Samples at room temperature for 24 h” value (“Accuracy (mean ± SD)%, Samples” below) in data set [1] was determined as 96.3 ± 2.1%. In addition, the “Accuracy (mean ± SD)%, Freeze-thaw (three cycles)” value (“Accuracy (mean ± SD)%, Freeze-thaw” below) in data set [1] came out at 96.0 ± 1.0%. In data set [2], the solubility at 72 h was determined as 213 µg/mL (≈ 357 µM). Also, the “Stability in K-R buffer solution, remaining” value (“Stability … remaining” below) stood at 100% in data set [3] (time 0 h), 98.63% in data set [3] (time 0.5 h), 98.59% in data set [3] (time 1 h) and 96.16% in data set [3] (time 2 h). Besides, the “P app × 10^3” value was 1.29 ± 0.12 cm · s^−1 in data set [4] (setting [9]); 0.92 ± 0.23 cm · s^−1 in data set [4] (setting [10]); 0.69 ± 0.31 cm · s^−1 in data set [4] (setting [11]); 1.36 ± 0.34 cm · s^−1 in data set [5] (Duodenum); 1.17 ± 0.49 cm · s^−1 in data set [5] (Ileum); 1.38 ± 0.82 cm · s^−1 in data set [5] (Jejunum). In data set [5] (colon), the “P app × 10^3” value was determined as 0.95 ± 0.45 cm · s^−1. The “Effect on cell cycle of T24 bladder cancer cells” value in data set [6] is on record as “arrest T24 bladder cancer cells at the G1 phase”.

On to `CCCCCCCCCC[C@H](O)[C@H]1CC[C@H]([C@H]2CC[C@H]([C@H](O)CCCCCCCCCC[C@@H](O)CC3=C[C@H](C)OC3=O)O2)O1` [Annonin-VI, annonin-VI], for which the “Accuracy (mean ± SD)%, Samples” value in data set [1] was determined as 98.3 ± 2.1%. Also, the “Accuracy (mean ± SD)%, Freeze-thaw” value in data set [1] is 99.3 ± 5.0%. For the same compound, in data set [2], the solubility at 72 h was 250 µg/mL (≈ 401 µM). In addition, the results for the “Stability … remaining” value in data set [3] (time 0 h), in data set [3] (time 0.5 h) and in data set [3] (time 1 h) were 100%, 95.64% and 99.59%, respectively. Besides, the “P app × 10^3” value in data set [4] (setting [9]) stood at 0.75 ± 0.37 cm · s^−1; in data set [4] (setting [10]), 0.75 ± 0.21 cm · s^−1; in data set [4] (setting [11]) it was 0.79 ± 0.30 cm · s^−1; in data set [5] (Duodenum) it was 2.28 ± 0.29 cm · s^−1; in data set [5] (Ileum), 1.26 ± 0.30 cm · s^−1; in data set [5] (Jejunum), 1.87 ± 0.29 cm · s^−1. Also, the “P app × 10^3” value in data set [5] (colon) turned out to be 1.10 ± 0.45 cm · s^−1. In data set [7], the “Effect on proton pumping function of complex I” value was “inhibited the proton pumping function of complex I”.

`CCCCCC[C@H](O)CCC[C@H](O)[C@H]1CC[C@H]([C@H]2CC[C@H]([C@H](O)CCCCCCCCCCCCC3=C[C@H](C)OC3=O)O2)O1` [Squamocin, squamocin]: the “Accuracy (mean ± SD)%, Samples” value in data set [1] was found to be 101.3 ± 6.2%. Besides, the “Accuracy (mean ± SD)%, Freeze-thaw” value in data set [1] came out at 101.6 ± 4.2%. Also, in data set [2], the solubility at 72 h was determined as 1080 µg/mL (≈ 1740 µM). In addition, the “Stability … remaining” value in data set [3] (time 0 h) is reported as 100%; in data set [3] (time 0.5 h) it was 100.51%; in data set [3] (time 1 h) it was 99.86%; in data set [3] (time 2 h), 98.58%. Also, the “P app × 10^3” value was found to be 0.96 ± 0.28 cm · s^−1 in data set [4] (setting [9]); 0.96 ± 0.27 cm · s^−1 in data set [4] (setting [10]); 0.93 ± 0.32 cm · s^−1 in data set [4] (setting [11]); 1.24 ± 0.27 cm · s^−1 in data set [5] (Duodenum); 1.14 ± 0.31 cm · s^−1 in data set [5] (Ileum); 1.30 ± 0.27 cm · s^−1 in data set [5] (Jejunum). In addition, the “P app × 10^3” value in data set [5] (colon) is listed as 1.03 ± 0.19 cm · s^−1. Moreover, the “Effect on proliferation of K562 cells” value in data set [8] was “inhibit the proliferation of K562 cells via G2/M arrest”.
